Experiment [1] concerns the target T1, endogenous kinases and other proteins enriched by Kinobeads from mixed lysates of K-562, COLO-205, MV-4-11, SK-N-BE(2) and OVCAR-8 (Homo sapiens, UniProt O14578).
T1 construct: to maximize the representation of endogenous proteins; endogenous in cells
In words: Kinobeads competition binding profiling, two doses (100 nM and 1 µM).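 Also: inhibitor preincubated 45 min at 4 °C in cell lysate, then bead pulldown. Bound protein quantified by label-free mass spectrometry relative to DMSO vehicle control.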 Particulars: CIT.

The target of experiment [2] is T2, endogenous kinases and other proteins enriched by Kinobeads from mixed lysates of K-562, COLO-205, MV-4-11, SK-N-BE(2) and OVCAR-8 (Homo sapiens, UniProt P49760).
T2 construct: endogenous in cells
Described as above. Particulars: CLK2.

Experiment [3] deals with T3, endogenous kinases and other proteins enriched by Kinobeads from mixed lysates of K-562, COLO-205, MV-4-11, SK-N-BE(2) and OVCAR-8 (Homo sapiens, UniProt P51956).
T3 construct: endogenous in cells
Described as above. Particulars: NEK3.

The target of experiment [4] is T4, endogenous kinases and other proteins enriched by Kinobeads from mixed lysates of K-562, COLO-205, MV-4-11, SK-N-BE(2) and OVCAR-8 (Homo sapiens, UniProt P54762).
T4 construct: endogenous in cells
The description is as above. Particulars: EPHB1.

For experiment [5], the target named is T5, endogenous kinases and other proteins enriched by Kinobeads from mixed lysates of K-562, COLO-205, MV-4-11, SK-N-BE(2) and OVCAR-8 (Homo sapiens, UniProt Q13627).
T5 construct: endogenous in cells
The experiment is described as above. The following applies: DYRK1A.

Experiment [6] addresses T6, endogenous kinases and other proteins enriched by Kinobeads from mixed lysates of K-562, COLO-205, MV-4-11, SK-N-BE(2) and OVCAR-8 (Homo sapiens, UniProt Q16832).
T6 construct: endogenous in cells
The experiment is described as above. The following applies: DDR2.

Experiment [7] addresses T7, endogenous kinases and other proteins enriched by Kinobeads from mixed lysates of K-562, COLO-205, MV-4-11, SK-N-BE(2) and OVCAR-8 (Homo sapiens, UniProt Q9Y6R4).
T7 construct: to maximize the representation of endogenous proteins; endogenous in cells
Described as above. The following applies: MAP3K4.

The target in experiment [8] is T8, endogenous kinases and other proteins enriched by Kinobeads from mixed lysates of K-562, COLO-205, MV-4-11, SK-N-BE(2) and OVCAR-8 (Homo sapiens, UniProt O43353).
T8 construct: to maximize the representation of endogenous proteins; endogenous in cells
Described as above. Particulars: read-out: Lestaurtinib Drugmatrix value, Gene Name RIPK2; target RIPK2; one Lestaurtinib control experiment/replicate (R1-R3).

In experiment [9] the target is T9, endogenous kinases and other proteins enriched by Kinobeads from mixed lysates of K-562, COLO-205, MV-4-11, SK-N-BE(2) and OVCAR-8 (Homo sapiens, UniProt Q05397).
T9 construct: endogenous in cells
The description is as above. The following applies: read-out: Lestaurtinib Drugmatrix value, Gene Name PTK2.

The target in experiment [10] is T10, endogenous kinases and other proteins enriched by Kinobeads from mixed lysates of K-562, COLO-205, MV-4-11, SK-N-BE(2) and OVCAR-8 (Homo sapiens, UniProt Q13882).
T10 construct: endogenous in cells
Described as above. Particulars: read-out: Lestaurtinib Drugmatrix value, Gene Name PTK6; target PTK6; one Lestaurtinib control experiment/replicate (R1-R3).

The target of experiment [11] is T11, CSK (Homo sapiens, UniProt P41240).
T11 construct: endogenous in cells
Kind of experiment: Kinobeads two-dose competition binding: CSK. Particulars: read-out: Lestaurtinib Drugmatrix value, Gene Name CSK.

Experiment [12] concerns the target T12, DYRK1A (Homo sapiens, UniProt Q13627).
T12 construct: endogenous in cells
Kind of experiment: Kinobeads two-dose competition binding: DYRK1A. Particulars: read-out: Lestaurtinib Drugmatrix value, Gene Name DYRK1A, target DYRK1A; each column = one Lestaurtinib control replicate (batch_R1-R3).

Experiment [13] deals with T13, EPHB1 (Homo sapiens, UniProt P54762).
T13 construct: endogenous in cells
T13 sequence (P54762 18-984): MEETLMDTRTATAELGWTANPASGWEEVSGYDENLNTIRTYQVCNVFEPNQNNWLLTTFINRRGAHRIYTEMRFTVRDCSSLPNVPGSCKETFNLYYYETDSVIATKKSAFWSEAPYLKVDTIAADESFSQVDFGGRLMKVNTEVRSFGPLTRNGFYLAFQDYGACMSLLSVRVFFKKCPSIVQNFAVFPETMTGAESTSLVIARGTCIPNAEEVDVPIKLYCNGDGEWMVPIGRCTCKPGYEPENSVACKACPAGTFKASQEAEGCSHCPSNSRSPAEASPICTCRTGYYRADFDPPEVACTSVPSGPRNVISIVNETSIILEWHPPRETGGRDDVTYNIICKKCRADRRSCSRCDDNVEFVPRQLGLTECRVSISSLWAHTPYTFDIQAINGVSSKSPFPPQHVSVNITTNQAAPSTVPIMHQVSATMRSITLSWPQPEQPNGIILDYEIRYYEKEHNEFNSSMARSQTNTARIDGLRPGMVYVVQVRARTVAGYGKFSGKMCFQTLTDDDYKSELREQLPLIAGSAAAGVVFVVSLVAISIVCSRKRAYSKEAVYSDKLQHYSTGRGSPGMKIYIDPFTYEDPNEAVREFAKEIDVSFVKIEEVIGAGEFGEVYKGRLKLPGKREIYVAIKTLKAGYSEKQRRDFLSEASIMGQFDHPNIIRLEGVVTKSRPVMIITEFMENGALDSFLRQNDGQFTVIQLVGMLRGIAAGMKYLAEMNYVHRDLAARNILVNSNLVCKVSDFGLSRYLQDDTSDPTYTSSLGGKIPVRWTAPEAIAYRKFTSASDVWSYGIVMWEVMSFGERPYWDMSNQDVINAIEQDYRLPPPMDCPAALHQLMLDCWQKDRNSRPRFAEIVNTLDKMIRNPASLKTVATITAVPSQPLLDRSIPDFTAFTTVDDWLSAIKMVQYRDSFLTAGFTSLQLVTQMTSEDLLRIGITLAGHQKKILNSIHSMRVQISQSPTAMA
In words: Kinobeads two-dose competition binding: EPHB1. Particulars: read-out: Lestaurtinib Drugmatrix value, Gene Name EPHB1; target EPHB1; each column = one Lestaurtinib control replicate (batch_R1-R3).

Experiment [14] addresses T14, HSP90B1 (Homo sapiens, UniProt P14625).
T14 construct: endogenous in cells
In words: Kinobeads two-dose competition binding: HSP90B1. The following applies: read-out: Lestaurtinib Drugmatrix value, Gene Name HSP90B1.

Experiment [15] has as its target T15, CSNK1E (Homo sapiens, UniProt P49674).
T15 construct: endogenous in cells
In words: Kinobeads full dose-response competition binding: CSNK1E. Particulars: Gene Name CSNK1E.

Structures are written as SMILES.

T15 sequence (P49674 whole entry): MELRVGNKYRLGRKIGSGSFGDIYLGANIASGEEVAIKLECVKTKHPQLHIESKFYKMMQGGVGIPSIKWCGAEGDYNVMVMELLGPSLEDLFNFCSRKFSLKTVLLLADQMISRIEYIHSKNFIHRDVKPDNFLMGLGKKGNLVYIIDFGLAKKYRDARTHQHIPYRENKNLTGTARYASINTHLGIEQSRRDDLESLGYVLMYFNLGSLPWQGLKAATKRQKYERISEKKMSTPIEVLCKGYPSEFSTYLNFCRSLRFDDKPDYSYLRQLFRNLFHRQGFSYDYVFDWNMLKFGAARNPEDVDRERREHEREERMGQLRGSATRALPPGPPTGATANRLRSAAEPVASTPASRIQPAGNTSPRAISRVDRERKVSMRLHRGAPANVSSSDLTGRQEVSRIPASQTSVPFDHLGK
T10 sequence (Q13882 whole entry): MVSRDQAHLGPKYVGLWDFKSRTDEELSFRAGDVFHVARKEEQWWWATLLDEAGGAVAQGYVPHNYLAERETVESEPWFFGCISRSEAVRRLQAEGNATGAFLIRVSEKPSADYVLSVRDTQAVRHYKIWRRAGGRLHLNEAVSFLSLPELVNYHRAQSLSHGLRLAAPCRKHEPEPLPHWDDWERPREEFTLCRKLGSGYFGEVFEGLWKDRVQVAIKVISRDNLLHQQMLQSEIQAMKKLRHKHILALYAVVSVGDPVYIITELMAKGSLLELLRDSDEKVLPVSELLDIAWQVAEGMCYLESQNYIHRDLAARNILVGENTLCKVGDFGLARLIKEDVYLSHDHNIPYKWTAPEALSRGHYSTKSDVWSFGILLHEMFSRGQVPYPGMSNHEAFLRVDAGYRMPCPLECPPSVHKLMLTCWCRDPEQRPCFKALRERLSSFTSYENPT
T14 sequence (P14625 22-803): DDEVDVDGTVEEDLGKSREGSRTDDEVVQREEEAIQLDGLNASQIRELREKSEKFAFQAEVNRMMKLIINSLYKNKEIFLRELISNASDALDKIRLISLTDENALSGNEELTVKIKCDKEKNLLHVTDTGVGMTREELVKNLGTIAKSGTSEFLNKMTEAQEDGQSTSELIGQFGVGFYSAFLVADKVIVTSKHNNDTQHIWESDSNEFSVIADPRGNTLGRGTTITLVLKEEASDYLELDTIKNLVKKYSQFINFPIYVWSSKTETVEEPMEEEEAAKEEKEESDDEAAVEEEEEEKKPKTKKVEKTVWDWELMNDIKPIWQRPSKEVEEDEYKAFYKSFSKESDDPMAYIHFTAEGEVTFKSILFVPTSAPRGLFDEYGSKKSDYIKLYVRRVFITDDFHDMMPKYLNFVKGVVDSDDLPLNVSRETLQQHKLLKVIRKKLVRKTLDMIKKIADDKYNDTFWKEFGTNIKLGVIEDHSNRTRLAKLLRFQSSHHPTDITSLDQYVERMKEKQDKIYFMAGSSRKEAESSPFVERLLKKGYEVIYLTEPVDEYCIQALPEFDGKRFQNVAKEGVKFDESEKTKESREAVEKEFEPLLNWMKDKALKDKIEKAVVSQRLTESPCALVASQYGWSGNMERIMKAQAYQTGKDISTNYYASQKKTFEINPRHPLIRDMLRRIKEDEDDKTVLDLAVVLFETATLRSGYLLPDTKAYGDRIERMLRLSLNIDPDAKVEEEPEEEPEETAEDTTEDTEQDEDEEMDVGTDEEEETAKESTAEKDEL
T3 sequence (P51956 whole entry): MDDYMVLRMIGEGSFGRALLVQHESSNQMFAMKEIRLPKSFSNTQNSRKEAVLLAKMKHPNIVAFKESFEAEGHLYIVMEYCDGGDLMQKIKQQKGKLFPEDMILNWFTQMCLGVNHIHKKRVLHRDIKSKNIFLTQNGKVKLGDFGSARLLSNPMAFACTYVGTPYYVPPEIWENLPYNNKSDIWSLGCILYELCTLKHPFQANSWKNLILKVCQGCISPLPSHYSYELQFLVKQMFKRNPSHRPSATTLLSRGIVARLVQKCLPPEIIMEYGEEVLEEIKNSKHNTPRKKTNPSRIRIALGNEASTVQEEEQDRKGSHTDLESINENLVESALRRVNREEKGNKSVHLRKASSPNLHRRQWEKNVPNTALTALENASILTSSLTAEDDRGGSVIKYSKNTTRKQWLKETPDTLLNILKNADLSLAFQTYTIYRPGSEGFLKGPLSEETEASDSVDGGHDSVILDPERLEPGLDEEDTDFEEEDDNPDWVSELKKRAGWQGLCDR
T6 sequence (Q16832 22-855): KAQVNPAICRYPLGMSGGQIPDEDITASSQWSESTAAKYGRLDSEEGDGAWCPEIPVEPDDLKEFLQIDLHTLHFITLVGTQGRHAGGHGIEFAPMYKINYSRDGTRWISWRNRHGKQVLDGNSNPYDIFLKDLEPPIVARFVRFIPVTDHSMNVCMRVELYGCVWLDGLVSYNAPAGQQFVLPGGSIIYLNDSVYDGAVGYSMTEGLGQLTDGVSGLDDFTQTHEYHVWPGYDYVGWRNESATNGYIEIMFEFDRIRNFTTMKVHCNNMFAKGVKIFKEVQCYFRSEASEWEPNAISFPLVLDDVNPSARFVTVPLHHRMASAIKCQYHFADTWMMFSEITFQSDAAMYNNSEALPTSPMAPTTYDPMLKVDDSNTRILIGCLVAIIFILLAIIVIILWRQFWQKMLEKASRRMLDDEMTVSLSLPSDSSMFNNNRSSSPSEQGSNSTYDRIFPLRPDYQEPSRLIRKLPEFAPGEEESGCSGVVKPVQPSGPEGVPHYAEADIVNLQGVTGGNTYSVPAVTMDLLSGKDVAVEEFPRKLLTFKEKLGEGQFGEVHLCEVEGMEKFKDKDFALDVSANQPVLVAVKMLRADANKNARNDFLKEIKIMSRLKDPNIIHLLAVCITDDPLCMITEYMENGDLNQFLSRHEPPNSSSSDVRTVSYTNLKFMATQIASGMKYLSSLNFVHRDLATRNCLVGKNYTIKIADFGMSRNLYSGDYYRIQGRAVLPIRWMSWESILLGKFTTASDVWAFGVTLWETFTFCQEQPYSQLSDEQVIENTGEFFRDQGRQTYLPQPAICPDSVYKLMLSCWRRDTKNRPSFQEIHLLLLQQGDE
T8 sequence (O43353 whole entry): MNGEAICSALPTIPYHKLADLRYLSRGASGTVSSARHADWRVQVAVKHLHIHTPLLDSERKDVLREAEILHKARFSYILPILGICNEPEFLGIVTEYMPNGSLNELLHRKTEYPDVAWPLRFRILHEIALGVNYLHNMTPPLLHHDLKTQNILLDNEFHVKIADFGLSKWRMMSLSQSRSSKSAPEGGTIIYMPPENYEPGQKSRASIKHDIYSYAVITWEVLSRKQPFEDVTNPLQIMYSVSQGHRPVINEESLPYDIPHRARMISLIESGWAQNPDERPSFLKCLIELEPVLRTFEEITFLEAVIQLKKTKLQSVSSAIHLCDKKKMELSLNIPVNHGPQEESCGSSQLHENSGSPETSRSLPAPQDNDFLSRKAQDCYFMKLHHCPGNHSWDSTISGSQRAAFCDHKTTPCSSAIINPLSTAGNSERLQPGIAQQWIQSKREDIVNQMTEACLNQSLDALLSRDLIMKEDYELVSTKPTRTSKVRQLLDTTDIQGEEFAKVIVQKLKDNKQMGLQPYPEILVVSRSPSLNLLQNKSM
T11 sequence (P41240 whole entry): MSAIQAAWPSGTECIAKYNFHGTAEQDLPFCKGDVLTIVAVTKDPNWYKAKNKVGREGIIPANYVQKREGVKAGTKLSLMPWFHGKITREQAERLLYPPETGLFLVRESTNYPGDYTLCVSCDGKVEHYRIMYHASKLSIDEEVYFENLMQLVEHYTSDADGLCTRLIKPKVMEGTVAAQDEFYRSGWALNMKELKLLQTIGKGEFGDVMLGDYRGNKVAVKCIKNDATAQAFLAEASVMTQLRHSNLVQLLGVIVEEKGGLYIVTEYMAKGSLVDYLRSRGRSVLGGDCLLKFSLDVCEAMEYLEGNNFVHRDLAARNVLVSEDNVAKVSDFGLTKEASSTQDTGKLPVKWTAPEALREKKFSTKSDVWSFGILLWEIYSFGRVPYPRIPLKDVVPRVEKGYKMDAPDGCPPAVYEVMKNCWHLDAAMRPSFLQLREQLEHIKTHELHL
T2 sequence (P49760 whole entry): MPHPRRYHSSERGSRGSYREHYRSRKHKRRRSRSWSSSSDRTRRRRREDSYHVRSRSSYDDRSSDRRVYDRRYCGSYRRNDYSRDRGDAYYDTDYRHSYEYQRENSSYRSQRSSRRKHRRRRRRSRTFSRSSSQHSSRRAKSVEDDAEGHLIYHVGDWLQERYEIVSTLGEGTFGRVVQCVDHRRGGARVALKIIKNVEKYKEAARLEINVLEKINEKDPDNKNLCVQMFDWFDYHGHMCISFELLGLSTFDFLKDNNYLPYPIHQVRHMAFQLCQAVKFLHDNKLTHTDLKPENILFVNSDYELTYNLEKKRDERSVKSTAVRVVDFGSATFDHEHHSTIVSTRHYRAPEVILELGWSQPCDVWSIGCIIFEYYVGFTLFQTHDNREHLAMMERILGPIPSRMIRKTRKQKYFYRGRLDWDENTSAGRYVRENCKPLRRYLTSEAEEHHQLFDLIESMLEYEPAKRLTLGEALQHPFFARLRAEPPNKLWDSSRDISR

As to `COc1cc(Nc2ncc3c(C)nc(-c4cc5ccccc5[nH]4)n3n2)cc(OC)c1OC` [GW869516X], the “Kinobeads Data” value in [1], in experiment [2], in [3], in [4], in [5] and in [6] was “no target” each time. For the same molecule, in experiment [7], the “Kinobeads Data” value is recorded as “no target”.
Take `C[C@]12O[C@H](C[C@]1(O)CO)n1c3ccccc3c3c4c(c5c6ccccc6n2c5c31)CNC4=O` [Lestaurtinib]: the potency estimated from few doses in experiment [8] was 810 nM; in experiment [9] it was 345 nM; in [10] it was 533 nM; in experiment [11], 526 nM; in [12], 820 nM; in experiment [13] it was 403 nM. Moreover, the potency estimated from few doses in experiment [14] is 979 nM.
A word on the EC50: it is the concentration at which the effect is half-maximal. `NCc1ccc(-c2nc(-c3ccncc3)c(-c3ccc(Cl)c(O)c3)[nH]2)cc1` [SB-476429-A]: the “Relative Intensity 0.3nM” value in experiment [15] (0.3nM compound, DMSO = 1) was 1.09. In addition, in experiment [15] (1nM compound, DMSO = 1), the “Relative Intensity 1nM” value is reported as 1.082. Besides, in experiment [15] (3nM compound, DMSO = 1), the “Relative Intensity 3nM” value amounted to 1.034. For the same molecule, the “Relative Intensity 10nM” value in experiment [15] (10nM compound, DMSO = 1) came to 1.047. In addition, the “Relative Intensity 30nM” value in experiment [15] (30nM compound, DMSO = 1) amounted to 0.8419. Moreover, the “Relative Intensity 100nM” value in [15] (100nM compound, DMSO = 1) is reported as 0.9482. Also, the “Relative Intensity 300nM” value in experiment [15] (300nM compound, DMSO = 1) was 0.7771. In addition, the “Relative Intensity 1000nM” value in experiment [15] (1000nM compound, DMSO = 1) was found to be 0.494. The Kd in experiment [15] (EC50 with Correction, doses in nM, read-out: apparent Kd) worked out at 642 nM. The 50% effective concentration (EC50) in experiment [15] (eight-dose curve fit, doses in nM) turned out to be 642 nM.

These data come from publication PMC11062922 (Nature Chemical Biology, 2023).
